Laboratory results as given in PubChem BioAssay (NCI).
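Cultured in 96-well plates, cells were exposed to test compound for 48 hours across five concentrations. Here, GI50 denotes the concentration required for 50% inhibition of growth. Definition used: TGI = concentration required for complete inhibition of growth.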

Experiments:
Assay in all cases: DTP human tumour cell line panel, 48 h
OVCAR-3 ovarian = system: OVCAR-3 ovarian
MALME-3M melanoma = system: MALME-3M melanoma
A498 renal = system: A498 renal
COLO 205 colon = system: COLO 205 colon
K-562 leukemia = system: K-562 leukemia
786-0 renal = system: 786-0 renal
CAKI-1 renal = system: CAKI-1 renal
A549 NSCLC = system: A549 NSCLC
NCI-H226 lung = system: NCI-H226 lung
HCT-116 colon = system: HCT-116 colon
LOX IMVI melanoma = system: LOX IMVI melanoma
RPMI-8226 leukemia = system: RPMI-8226 leukemia
HT29 colon = system: HT29 colon
UACC-62 melanoma = system: UACC-62 melanoma
HL-60(TB) leukemia = system: HL-60(TB) leukemia
SF-539 CNS = system: SF-539 CNS
SW-620 colon = system: SW-620 colon
SF-295 CNS = system: SF-295 CNS
KM12 colon = system: KM12 colon
SNB-19 CNS = system: SNB-19 CNS
PC-3 prostate = system: PC-3 prostate
OVCAR-4 ovarian = system: OVCAR-4 ovarian
SK-MEL-5 melanoma = system: SK-MEL-5 melanoma
CCRF-CEM leukemia = system: CCRF-CEM leukemia
NCI-H23 lung = system: NCI-H23 lung
SF-268 CNS = system: SF-268 CNS
BT-549 breast = system: BT-549 breast
NCI-H522 lung = system: NCI-H522 lung
MDA-MB-435 = system: MDA-MB-435
HCC-2998 colon = system: HCC-2998 colon
TK-10 renal = system: TK-10 renal
HCT-15 colon = system: HCT-15 colon
HS 578T breast = system: HS 578T breast
U251 CNS = system: U251 CNS
ACHN renal = system: ACHN renal
OVCAR-5 ovarian = system: OVCAR-5 ovarian
NCI/ADR-RES ovarian = system: NCI/ADR-RES ovarian
OVCAR-8 ovarian = system: OVCAR-8 ovarian
HOP-62 NSCLC = system: HOP-62 NSCLC
SK-OV-3 ovarian = system: SK-OV-3 ovarian
SK-MEL-28 melanoma = system: SK-MEL-28 melanoma
MOLT-4 leukemia = system: MOLT-4 leukemia
M14 melanoma = system: M14 melanoma
EKVX NSCLC = system: EKVX NSCLC
T-47D breast = system: T-47D breast
UACC-257 melanoma = system: UACC-257 melanoma
SN12C renal = system: SN12C renal
MCF7 breast = system: MCF7 breast
RXF 393 renal = system: RXF 393 renal
SR leukemia = system: SR leukemia
HOP-92 NSCLC = system: HOP-92 NSCLC
IGROV1 ovarian = system: IGROV1 ovarian
MDA-MB-468 breast = system: MDA-MB-468 breast
NCI-H460 lung = system: NCI-H460 lung
DU-145 prostate = system: DU-145 prostate

With `COc1ccc2ccccc2c1/C=C1\SC(=Nc2ccc(O)cc2)NC1=O` the GI50 (OVCAR-3 ovarian) was 425 nM, the TGI (OVCAR-3 ovarian) was 11.7 µM and the GI50 (MALME-3M melanoma) was 1020 nM. For the same compound, the TGI (MALME-3M melanoma) was 14.4 µM, the GI50 (A498 renal) was 3.7 µM and the TGI (A498 renal) was 16.4 µM. The GI50 (COLO 205 colon) was 1880 nM, the TGI (COLO 205 colon) was 5.04 µM and the GI50 (K-562 leukemia) was 413 nM. It also gave a TGI (K-562 leukemia) of 11.9 µM, a GI50 (786-0 renal) of 3.19 µM and a TGI (786-0 renal) of 21 µM. It also gave a GI50 (CAKI-1 renal) of 11.1 µM, a TGI (CAKI-1 renal) of 46.5 µM and a GI50 (A549 NSCLC) of 2010 nM. It also gave a TGI (A549 NSCLC) of 16.9 µM, a GI50 (NCI-H226 lung) of 5.56 µM and a TGI (NCI-H226 lung) of 34.7 µM. For the same compound, the GI50 (HCT-116 colon) was 432 nM, the TGI (HCT-116 colon) was 11.6 µM and the GI50 (LOX IMVI melanoma) was 666 nM. For the same compound, the TGI (LOX IMVI melanoma) was 12.1 µM, the GI50 (RPMI-8226 leukemia) was 2590 nM and the TGI (RPMI-8226 leukemia) was 9.45 µM. For the same compound, the GI50 (HT29 colon) was 2820 nM, the TGI (HT29 colon) was 7.35 µM and the GI50 (UACC-62 melanoma) was 346 nM. The TGI (UACC-62 melanoma) was 12.5 µM, the GI50 (HL-60(TB) leukemia) was 431 nM and the TGI (HL-60(TB) leukemia) was 2650 nM. For the same compound, the GI50 (SF-539 CNS) was 517 nM, the TGI (SF-539 CNS) was 3.4 µM and the GI50 (SW-620 colon) was 437 nM. The TGI (SW-620 colon) was 15.8 µM, the GI50 (SF-295 CNS) was 843 nM and the TGI (SF-295 CNS) was 10.9 µM. For the same compound, the GI50 (KM12 colon) was 1190 nM, the TGI (KM12 colon) was 14.8 µM and the GI50 (SNB-19 CNS) was 1800 nM. It also gave a TGI (SNB-19 CNS) of 14 µM, a GI50 (PC-3 prostate) of 798 nM and a TGI (PC-3 prostate) of 29.1 µM. For the same compound, the GI50 (OVCAR-4 ovarian) was 3.81 µM, the TGI (OVCAR-4 ovarian) was 21.1 µM and the GI50 (SK-MEL-5 melanoma) was 540 nM. For the same compound, the TGI (SK-MEL-5 melanoma) was 2280 nM, the GI50 (CCRF-CEM leukemia) was 651 nM and the TGI (CCRF-CEM leukemia) was 30.1 µM. For the same compound, the GI50 (NCI-H23 lung) was 1110 nM, the TGI (NCI-H23 lung) was 11.3 µM and the GI50 (SF-268 CNS) was 1590 nM. For the same compound, the TGI (SF-268 CNS) was 18.7 µM, the GI50 (BT-549 breast) was 1040 nM and the TGI (BT-549 breast) was 4.54 µM. The GI50 (NCI-H522 lung) was 422 nM, the TGI (NCI-H522 lung) was 2220 nM and the GI50 (MDA-MB-435) was 235 nM. The TGI (MDA-MB-435) was 591 nM, the GI50 (HCC-2998 colon) was 1730 nM and the TGI (HCC-2998 colon) was 12.6 µM. For the same compound, the GI50 (TK-10 renal) was 4.14 µM, the TGI (TK-10 renal) was 21.6 µM and the GI50 (HCT-15 colon) was 442 nM. For the same compound, the TGI (HCT-15 colon) was 11.1 µM, the GI50 (HS 578T breast) was 400 nM and the TGI (HS 578T breast) was 11.9 µM. For the same compound, the GI50 (U251 CNS) was 425 nM, the TGI (U251 CNS) was 11.3 µM and the GI50 (ACHN renal) was 1810 nM. For the same compound, the TGI (ACHN renal) was 16.3 µM, the GI50 (OVCAR-5 ovarian) was 3.56 µM and the TGI (OVCAR-5 ovarian) was 16.2 µM. It also gave a GI50 (NCI/ADR-RES ovarian) of 950 nM, a TGI (NCI/ADR-RES ovarian) of 3.8 µM and a GI50 (OVCAR-8 ovarian) of 1580 nM. It also gave a TGI (OVCAR-8 ovarian) of 6.51 µM, a GI50 (HOP-62 NSCLC) of 2580 nM and a TGI (HOP-62 NSCLC) of 13.6 µM. For the same compound, the GI50 (SK-OV-3 ovarian) was 1660 nM, the TGI (SK-OV-3 ovarian) was 18 µM and the GI50 (SK-MEL-28 melanoma) was 966 nM. It also gave a TGI (SK-MEL-28 melanoma) of 19.9 µM, a GI50 (MOLT-4 leukemia) of 1510 nM and a TGI (MOLT-4 leukemia) of 11.3 µM. For the same compound, the GI50 (M14 melanoma) was 492 nM, the TGI (M14 melanoma) was 10.8 µM and the GI50 (EKVX NSCLC) was 1110 nM. For the same compound, the TGI (EKVX NSCLC) was 17.3 µM, the GI50 (T-47D breast) was 765 nM and the TGI (T-47D breast) was 31.7 µM. For the same compound, the GI50 (UACC-257 melanoma) was 683 nM, the TGI (UACC-257 melanoma) was 19.6 µM and the GI50 (SN12C renal) was 2480 nM. It also gave a TGI (SN12C renal) of 13.3 µM, a GI50 (MCF7 breast) of 428 nM and a TGI (MCF7 breast) of 12.5 µM. The GI50 (RXF 393 renal) was 272 nM, the TGI (RXF 393 renal) was 1710 nM and the GI50 (SR leukemia) was 321 nM. For the same compound, the TGI (SR leukemia) was 12.5 µM, the GI50 (HOP-92 NSCLC) was 2050 nM and the TGI (HOP-92 NSCLC) was 20.3 µM. The GI50 (IGROV1 ovarian) was 1850 nM, the TGI (IGROV1 ovarian) was 14.4 µM and the GI50 (MDA-MB-468 breast) was 370 nM. It also gave a TGI (MDA-MB-468 breast) of 1820 nM, a GI50 (NCI-H460 lung) of 833 nM and a TGI (NCI-H460 lung) of 11.3 µM. It also gave a GI50 (DU-145 prostate) of 2170 nM and a TGI (DU-145 prostate) of 19.6 µM.
